PubChem BioAssay AID1963451 (Molecular Pharmacology Branch, DTP, NCI, 2024)

Test system: 521955-158-R6-J3-PDC complex spheroid growth, % test/control
Assay: Anticancer human tumor 521955-158-R6-J3-PDC patient-derived pancreatic carcinoma cell line growth inhibition [Asc]
Settings: for IC50: curve of first compound; for viability, T/C: stronger effect = lower value
Method in brief: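 Spheroid model: tumor line + HUVEC + hMSC. Single agents and combinations; top conc. at/near clinical Cmax (10 microM if undetermined), half-log dilutions. DMSO stocks at 800-fold test concentration.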

[1] = second compound 0.0316 µM, first compound 0.0316 µM
[2] = second compound 0.0316 µM, first compound 0.1 µM
[3] = second compound 0.1 µM, first compound 0.0316 µM
[4] = second compound 0.1 µM, first compound 0.1 µM
[5] = second compound 0.316 µM, first compound 0.0316 µM
[6] = second compound 0.316 µM, first compound 0.1 µM
[7] = second compound 1 µM, first compound 0.0316 µM
[8] = second compound 1 µM, first compound 0.1 µM
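Note: spheroids exposed to compounds for 7 days.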
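Throughout, for viability, T/C: 100% = DMSO vehicle control wells.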

## C=C(F)C(=O)N1CCN(c2nc(OCC3CCCN3C)nc3c2CCN(c2cccc4cccc(Cl)c24)C3)CC1CC#N (stereo unspecified) + Cc1c(S(C)(=O)=O)c(-c2cc(F)cc(N3CCN(c4ccc(NS(=O)(=O)c5ccc(NC(CCN6CCC(C(=O)OCCCP(=O)(O)O)CC6)CSc6ccccc6)c(S(=O)(=O)C(F)(F)F)c5)cc4)CC3)c2)c(-c2ccc(Cl)cc2)n1C(C)C
Second compound 0.0316 µM
  IC50: 3740 nM
Second compound 0.1 µM
  IC50: 1000 nM
Second compound 0.316 µM
  IC50: 111 nM
Second compound 1 µM
  IC50: < 31.6 nM
Second compound 3.16 µM
  IC50: < 31.6 nM
Second compound 10 µM
  IC50: < 31.6 nM
[1]
  viability, T/C: 79.3%
[2]
  viability, T/C: 79.6%
Second compound 0.0316 µM, first compound 0.316 µM
  viability, T/C: 73.5%
Second compound 0.0316 µM, first compound 1 µM
  viability, T/C: 73.3%
Second compound 0.0316 µM, first compound 3.16 µM
  viability, T/C: 59.1%
Second compound 0.0316 µM, first compound 10 µM
  viability, T/C: 0.31%
[3]
  viability, T/C: 80.3%
[4]
  viability, T/C: 65.3%
Second compound 0.1 µM, first compound 0.316 µM
  viability, T/C: 58.5%
Second compound 0.1 µM, first compound 1 µM
  viability, T/C: 47.1%
Second compound 0.1 µM, first compound 3.16 µM
  viability, T/C: 39.6%
Second compound 0.1 µM, first compound 10 µM
  viability, T/C: 0.27%
[5]
  viability, T/C: 57.9%
[6]
  viability, T/C: 49.6%
Second compound 0.316 µM, first compound 0.316 µM
  viability, T/C: 37.9%
Second compound 0.316 µM, first compound 1 µM
  viability, T/C: 36.9%
Second compound 0.316 µM, first compound 3.16 µM
  viability, T/C: 23.3%
Second compound 0.316 µM, first compound 10 µM
  viability, T/C: 0.26%
[7]
  viability, T/C: 40.1%
[8]
  viability, T/C: 34.3%
Second compound 1 µM, first compound 0.316 µM
  viability, T/C: 28.4%
Second compound 1 µM, first compound 1 µM
  viability, T/C: 17.8%
Second compound 1 µM, first compound 3.16 µM
  viability, T/C: 8.04%
Second compound 1 µM, first compound 10 µM
  viability, T/C: 0.21%
Second compound 3.16 µM, first compound 0.0316 µM
  viability, T/C: 18.4%
Second compound 3.16 µM, first compound 0.1 µM
  viability, T/C: 16.9%
Second compound 3.16 µM, first compound 0.316 µM
  viability, T/C: 15.8%
Second compound 3.16 µM, first compound 1 µM
  viability, T/C: 10%
Second compound 3.16 µM, first compound 3.16 µM
  viability, T/C: 0.82%
Second compound 3.16 µM, first compound 10 µM
  viability, T/C: 0.2%
Second compound 10 µM, first compound 0.0316 µM
  viability, T/C: 13.4%
Second compound 10 µM, first compound 0.1 µM
  viability, T/C: 18.4%
Second compound 10 µM, first compound 0.316 µM
  viability, T/C: 21.8%
Second compound 10 µM, first compound 1 µM
  viability, T/C: 9.59%
Second compound 10 µM, first compound 3.16 µM
  viability, T/C: 0.77%
Second compound 10 µM, first compound 10 µM
  viability, T/C: 0.15%

## C#Cc1c(F)ccc2cc(O)cc(-c3ncc4c(N5CC6CCC(C5)N6)nc(OCC56CCCN5CC(F)C6)nc4c3F)c12 (stereo unspecified) + CCN1C(C(=O)NC23CCC(C(=O)O)(CC2)CC3)C(c2cccc(Cl)c2F)C2(C(=O)Nc3cc(Cl)ccc32)C12CCCCC2
Second compound 0.00949 µM
  IC50: 518 nM
Second compound 0.03 µM
  IC50: 329 nM
Second compound 0.0949 µM
  IC50: 214 nM
Second compound 0.3 µM
  IC50: 223 nM
Second compound 0.949 µM
  IC50: 903 nM
Second compound 3 µM
  IC50: < 31.6 nM
Second compound 0.00949 µM, first compound 0.0316 µM
  viability, T/C: 76.9%
Second compound 0.00949 µM, first compound 0.1 µM
  viability, T/C: 60.5%
Second compound 0.00949 µM, first compound 0.316 µM
  viability, T/C: 50.2%
Second compound 0.00949 µM, first compound 1 µM
  viability, T/C: 49.1%
Second compound 0.00949 µM, first compound 3.16 µM
  viability, T/C: 39.3%
Second compound 0.00949 µM, first compound 10 µM
  viability, T/C: 28.2%
Second compound 0.03 µM, first compound 0.0316 µM
  viability, T/C: 72.2%
Second compound 0.03 µM, first compound 0.1 µM
  viability, T/C: 58%
Second compound 0.03 µM, first compound 0.316 µM
  viability, T/C: 47.1%
Second compound 0.03 µM, first compound 1 µM
  viability, T/C: 45.4%
Second compound 0.03 µM, first compound 3.16 µM
  viability, T/C: 41.4%
Second compound 0.03 µM, first compound 10 µM
  viability, T/C: 31.7%
Second compound 0.0949 µM, first compound 0.0316 µM
  viability, T/C: 81.6%
Second compound 0.0949 µM, first compound 0.1 µM
  viability, T/C: 55.8%
Second compound 0.0949 µM, first compound 0.316 µM
  viability, T/C: 46.5%
Second compound 0.0949 µM, first compound 1 µM
  viability, T/C: 40.2%
Second compound 0.0949 µM, first compound 3.16 µM
  viability, T/C: 43.6%
Second compound 0.0949 µM, first compound 10 µM
  viability, T/C: 30.3%
Second compound 0.3 µM, first compound 0.0316 µM
  viability, T/C: 72.1%
Second compound 0.3 µM, first compound 0.1 µM
  viability, T/C: 65.9%
Second compound 0.3 µM, first compound 0.316 µM
  viability, T/C: 42.4%
Second compound 0.3 µM, first compound 1 µM
  viability, T/C: 40.4%
Second compound 0.3 µM, first compound 3.16 µM
  viability, T/C: 39.2%
Second compound 0.3 µM, first compound 10 µM
  viability, T/C: 29.3%
Second compound 0.949 µM, first compound 0.0316 µM
  viability, T/C: 68.3%
Second compound 0.949 µM, first compound 0.1 µM
  viability, T/C: 66%
Second compound 0.949 µM, first compound 0.316 µM
  viability, T/C: 51%
Second compound 0.949 µM, first compound 1 µM
  viability, T/C: 53%
Second compound 0.949 µM, first compound 3.16 µM
  viability, T/C: 41.7%
Second compound 0.949 µM, first compound 10 µM
  viability, T/C: 34.2%
Second compound 3 µM, first compound 0.0316 µM
  viability, T/C: 57.9%
Second compound 3 µM, first compound 0.1 µM
  viability, T/C: 48.4%
Second compound 3 µM, first compound 0.316 µM
  viability, T/C: 51%
Second compound 3 µM, first compound 1 µM
  viability, T/C: 41.3%
Second compound 3 µM, first compound 3.16 µM
  viability, T/C: 50.4%
Second compound 3 µM, first compound 10 µM
  viability, T/C: 25.7%

## NC1CCC(NC2CC2c2ccccc2)CC1 (stereo unspecified) + CNC(C)C(=O)NC1CN(S(=O)(=O)c2cccc(S(=O)(=O)N3CCC4CCC(C(=O)NC(c5ccccc5)c5ccccc5)N4C(=O)C(NC(=O)C(C)NC)C3)c2)CCC2CCC(C(=O)NC(c3ccccc3)c3ccccc3)N2C1=O
Second compound 0.00316 µM
  IC50: > 100 nM
Second compound 0.01 µM
  IC50: > 100 nM
Second compound 0.0316 µM
  IC50: > 100 nM
Second compound 0.1 µM
  IC50: > 100 nM
Second compound 0.316 µM
  IC50: > 100 nM
Second compound 1 µM
  IC50: > 100 nM
Second compound 0.00316 µM, first compound 0.000316 µM
  viability, T/C: 86%
Second compound 0.00316 µM, first compound 0.001 µM
  viability, T/C: 98.8%
Second compound 0.00316 µM, first compound 0.00316 µM
  viability, T/C: 95.5%
Second compound 0.00316 µM, first compound 0.01 µM
  viability, T/C: 92.6%
Second compound 0.00316 µM, first compound 0.0316 µM
  viability, T/C: 91.1%
Second compound 0.00316 µM, first compound 0.1 µM
  viability, T/C: 82.1%
Second compound 0.01 µM, first compound 0.000316 µM
  viability, T/C: 94%
Second compound 0.01 µM, first compound 0.001 µM
  viability, T/C: 85.2%
Second compound 0.01 µM, first compound 0.00316 µM
  viability, T/C: 77.6%
Second compound 0.01 µM, first compound 0.01 µM
  viability, T/C: 93%
Second compound 0.01 µM, first compound 0.0316 µM
  viability, T/C: 91.4%
Second compound 0.01 µM, first compound 0.1 µM
  viability, T/C: 82.3%
Second compound 0.0316 µM, first compound 0.000316 µM
  viability, T/C: 98.1%
Second compound 0.0316 µM, first compound 0.001 µM
  viability, T/C: 93.4%
Second compound 0.0316 µM, first compound 0.00316 µM
  viability, T/C: 80%
Second compound 0.0316 µM, first compound 0.01 µM
  viability, T/C: 93.1%
[1]
  viability, T/C: 87.8%
[2]
  viability, T/C: 88.8%
Second compound 0.1 µM, first compound 0.000316 µM
  viability, T/C: 91.4%
Second compound 0.1 µM, first compound 0.001 µM
  viability, T/C: 80.8%
Second compound 0.1 µM, first compound 0.00316 µM
  viability, T/C: 68.5%
Second compound 0.1 µM, first compound 0.01 µM
  viability, T/C: 86.1%
[3]
  viability, T/C: 89.6%
[4]
  viability, T/C: 66.3%
Second compound 0.316 µM, first compound 0.000316 µM
  viability, T/C: 83.8%
Second compound 0.316 µM, first compound 0.001 µM
  viability, T/C: 89.7%
Second compound 0.316 µM, first compound 0.00316 µM
  viability, T/C: 84.4%
Second compound 0.316 µM, first compound 0.01 µM
  viability, T/C: 89%
[5]
  viability, T/C: 71%
[6]
  viability, T/C: 79.7%
Second compound 1 µM, first compound 0.000316 µM
  viability, T/C: 90.1%
Second compound 1 µM, first compound 0.001 µM
  viability, T/C: 77.8%
Second compound 1 µM, first compound 0.00316 µM
  viability, T/C: 76.9%
Second compound 1 µM, first compound 0.01 µM
  viability, T/C: 96.5%
[7]
  viability, T/C: 92.2%
[8]
  viability, T/C: 83.8%
